Experimental data published in ChEMBL document CHEMBL1133780, “Synthesis and antiparasitic activity of 2-(trifluoromethyl)-benzimidazole derivatives” (Bioorg Med Chem Lett, 2001).

Legend:
Entamoeba histolytica = assay: In vitro antiprotozoal activity against Entamoeba histolytica; type: functional, organism-based
Trichinella spiralis [1] = assay: Percent reduction of viability of Trichinella spiralis muscle larvae at a concentration of 3*10e-3 uM; type: functional
Rattus norvegicus [2] = species on record: Rattus norvegicus; assay: Tested for inhibition of tubulin polymerization in rat brain at a concentration of 3*10e-3 uM; type: functional
Trichinella spiralis [3] = assay: Percent reduction of viability of Trichinella spiralis muscle larvae at a concentration of 3*10e-4 uM; type: functional
Giardia intestinalis = assay: In vitro antiprotozoal activity against Giardia lamblia; type: functional, organism-based; conditions: Giardia duodenalis
Rattus norvegicus [4] = species on record: Rattus norvegicus; assay: Tested for inhibition of tubulin polymerization in rat brain at a concentration of 0.015 uM; type: functional
Rattus norvegicus [5] = species on record: Rattus norvegicus; assay: Tested for inhibition of tubulin polymerization in rat brain at a concentration of 3*10e-5 uM; type: functional
Trichinella spiralis [6] = assay: Percent reduction of viability of Trichinella spiralis muscle larvae at a concentration of 3*10e-6 uM; No reduction observed; type: functional, organism-based
Rattus norvegicus [7] = species on record: Rattus norvegicus; assay: Tested for inhibition of tubulin polymerization in rat brain at a concentration of 0.024 uM; type: functional
Trichinella spiralis [8] = assay: Percent reduction of viability of Trichinella spiralis muscle larvae at a concentration of 3*10e-5 uM; type: functional
Trichinella spiralis [9] = assay: Percent reduction of viability of Trichinella spiralis muscle larvae at a concentration of 3*10e-5 uM; No reduction observed; type: functional, organism-based
Trichinella spiralis [10] = assay: Percent reduction of viability of Trichinella spiralis muscle larvae at a concentration of 3*10e-3 uM; No reduction observed; type: functional, organism-based
Trichinella spiralis [11] = assay: Percent reduction of viability of Trichinella spiralis muscle larvae at a concentration of 3*10e-4 uM; No reduction observed; type: functional, organism-based
Trichinella spiralis [12] = assay: Percent reduction of viability of Trichinella spiralis muscle larvae at a concentration of 3*10e-6 uM; type: functional

IC50 (Entamoeba histolytica) [nM] | IC50 (Giardia intestinalis) [nM] | Structure (SMILES) | Reduction (Trichinella spiralis [1]) [%] | Viscosity (Rattus norvegicus [2]) | Reduction (Trichinella spiralis [3]) [%] | Viscosity (Rattus norvegicus [4]) | Viscosity (Rattus norvegicus [5]) | Reduction (Trichinella spiralis [6]) | Viscosity (Rattus norvegicus [7]) | Reduction (Trichinella spiralis [8]) [%] | Reduction (Trichinella spiralis [9]) | Reduction (Trichinella spiralis [10]) | Reduction (Trichinella spiralis [11]) | Reduction (Trichinella spiralis [12]) [%]
69 | 107 | FC(F)(F)c1nc2ccccc2[nH]1 | 9 | 7.56 | 3 | 7.34 | 7.55 | No reduction | 6.92 | 1 |  |  |  | 
8 | 127 | Cn1c(C(F)(F)F)nc2ccc(Cl)cc21 |  | 7.39 |  | 7.07 | 6.44 | No reduction | 7.26 |  | No reduction | No reduction | No reduction | 
350 | 1220 | Cc1ncc([N+](=O)[O-])n1CCO [METRONIDAZOLE] |  |  |  |  |  |  |  |  |  |  |  | 
40 | 64 | Cn1c(C(F)(F)F)nc2ccccc21 | 12 | 7.41 | 9 | 7.31 | 6.68 | No reduction | 7.16 | 1 |  |  |  | 
11 | 78 | FC(F)(F)c1nc2cc(Cl)c(Cl)cc2[nH]1 | 19 | 7.03 | 9 | 6.68 | 7 | No reduction | 7.22 | 1 |  |  |  | 
33 | 260 | Cn1c(C(F)(F)F)nc2cc(Cl)c(Cl)cc21 | 15 | 7.63 | 9 | 6.63 | 6.93 |  | 6.94 | 4 |  |  |  | 2
22 | 1280 | FC(F)(F)c1nc2cc(Cl)ccc2[nH]1 |  | 6.7 |  | 7.14 | 6.59 | No reduction | 6.47 |  | No reduction | No reduction | No reduction | 
46 | 42 | Cn1c(C(F)(F)F)nc2cc(Cl)ccc21 | 39 | 7.58 | 16 | 6.94 | 7.3 |  | 7.54 | 9 |  |  |  | 2

Structure (SMILES) | IC50 (Entamoeba histolytica) [nM] | IC50 (Giardia intestinalis) [nM] | Reduction (Trichinella spiralis [1]) [%] | Viscosity (Rattus norvegicus [2]) | Reduction (Trichinella spiralis [3]) [%] | Viscosity (Rattus norvegicus [4]) | Viscosity (Rattus norvegicus [5]) | Reduction (Trichinella spiralis [6]) | Viscosity (Rattus norvegicus [7]) | Reduction (Trichinella spiralis [8]) [%] | Reduction (Trichinella spiralis [9]) | Reduction (Trichinella spiralis [10]) | Reduction (Trichinella spiralis [11]) | Reduction (Trichinella spiralis [12]) [%]
CCCSc1ccc2[nH]c(NC(=O)OC)nc2c1 [ALBENDAZOLE] | 56300 | 37 | 30 | 2.07 | 20 |  | 7.04 |  |  | 13 |  |  |  | 6
